# Laboratory results from patent US10638756B2, “Molecules having pesticidal utility, and intermediates, compositions, and processes, related thereto” (Dow AgroSciences LLC, priority 2017, dated 2020).
# Tests used:
# [1] = test system: Beet Armyworm (Spodoptera exigua); experiment: Bioassay on Beet Armyworm (BAW), 128-well diet tray assay; type: in vivo; conditions: Spodoptera exigua, 168 h; 50 μg/cm^2 on artificial diet, second instar larvae, five to seven days; read-out: BAW % Control (or Mortality) rating
# [2] = test system: Cabbage Looper (Trichoplusia ni); experiment: Bioassay on Cabbage Looper (CL), 128-well diet tray assay; type: in vivo; conditions: 168 h, 50 μg/cm^2 on artificial diet, second instar larvae, five to seven days, read-out: CL % Control (or Mortality) rating
# Summary of the method: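 Each of eight wells receives artificial diet treated at 50 μg/cm^2 with the test molecule, then one to five second-instar larvae. Incubation runs five to seven days at 25° C with a 14:10 light-dark cycle under vented covers. Mortality is scored per well as a percentage and averaged.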
smiles,measurement,setting,value
"CN(NC(=O)c1ccc(/C(F)=C/C(c2ccc(Cl)c(OC(F)(F)F)c2)C(F)(F)F)cc1C(F)(F)F)c1ccccn1 (centres unmarked) [F60, (Z)-4-(3-(4-Chloro-3-(trifluoromethoxy)phenyl)-1,4,4,4-tetrafluorobut-1-en-1-yl)-N′-methyl-N′-(pyridin-2-yl)-2-(trifluoromethyl)benzohydrazide]",mortality at 50 µg/cm2,[1],50 to 100%
same,mortality at 50 µg/cm2,[2],50 to 100%
"Cc1nc(Cl)cc(NNC(=O)c2ccc(/C(F)=C/C(c3cc(Cl)c(Cl)c(Cl)c3)C(F)(F)F)cc2C(F)(F)F)n1 (centres unmarked) [F79, (Z)—N′-(6-Chloro-2-methylpyrimidin-4-yl)-4-(1,4,4,4-tetrafluoro-3-(3,4,5-trichlorophenyl)but-1-en-1-yl)-2-(trifluoromethyl)benzohydrazide]",mortality at 50 µg/cm2,[1],50 to 100%
same,mortality at 50 µg/cm2,[2],50 to 100%
"O=C(NNC1=NCCCN1)c1ccc(/C(F)=C/C(c2cc(Cl)c(Cl)c(Cl)c2)C(F)(F)F)cc1C(F)(F)F (centres unmarked) [F27, (Z)-4-(1,4,4,4-Tetrafluoro-3-(3,4,5-trichlorophenyl)but-1-en-1-yl)-N′-(1,4,5,6-tetrahydropyrimidin-2-yl)-2-(trifluoromethyl)benzohydrazide]",mortality at 50 µg/cm2,[1],50 to 100%
same,mortality at 50 µg/cm2,[2],50 to 100%
"O=C(NNc1ncccn1)c1ccc(/C(F)=C/C(c2cc(Cl)cc(OC(F)(F)F)c2)C(F)(F)F)cc1C(F)(F)F (centres unmarked) [F106, (Z)-4-(3-(3-Chloro-5-(trifluoromethoxy)phenyl)-1,4,4,4-tetrafluorobut-1-en-1-yl)-N′-(pyrimidin-2-yl)-2-(trifluoromethyl)benzohydrazide]",mortality at 50 µg/cm2,[1],50 to 100%
same,mortality at 50 µg/cm2,[2],50 to 100%
"COC(=O)c1scc(C)c1NNC(=O)c1ccc(/C(F)=C/C(c2cc(Cl)c(Cl)c(Cl)c2)C(F)(F)F)cc1C(F)(F)F (centres unmarked) [F15, Methyl (Z)-4-methyl-3-(2-(4-(1,4,4,4-tetrafluoro-3-(3,4,5-trichlorophenyl)but-1-en-1-yl)-2-(trifluoromethyl)benzoyl)hydrazinyl)thiophene-2-carboxylate]",mortality at 50 µg/cm2,[1],50 to 100%
same,mortality at 50 µg/cm2,[2],50 to 100%
"CN(NC(=O)c1ccc(/C(F)=C/C(c2cc(Cl)c(Cl)c(Cl)c2)C(F)(F)F)cc1C(F)(F)F)c1ccccn1 (centres unmarked) [F59, (Z)—N′-Methyl-N′-(pyridin-2-yl)-4-(1,4,4,4-tetrafluoro-3-(3,4,5-trichloro-phenyl)but-1-en-1-yl)-2-(trifluoromethyl)benzohydrazide]",mortality at 50 µg/cm2,[1],50 to 100%
same,mortality at 50 µg/cm2,[2],50 to 100%
"O=C(NNc1ncccn1)c1ccc(/C(F)=C\C(c2cc(Cl)c(Cl)c(Cl)c2)C(F)(F)F)cc1C(F)(F)F (centres unmarked) [F74, (E)-N′-(pyrimidin-2-yl)-4-(1,4,4,4-tetrafluoro-3-(3,4,5-trichlorophenyl)but-1-en-1-yl)-2-(trifluoromethyl)benzohydrazide]",mortality at 50 µg/cm2,[1],50 to 100%
same,mortality at 50 µg/cm2,[2],50 to 100%
"O=C(NNc1ncccn1)c1ccc(/C(F)=C/C(c2ccc(Br)c(Br)c2)C(F)(F)F)cc1C(F)(F)F (centres unmarked) [F177, (Z)-4-(3-(3,4-Dibromophenyl)-1,4,4,4-tetrafluorobut-1-en-1-yl)-N′-(pyrimidin-2-yl)-2-(trifluoromethyl)benzohydrazide]",mortality at 50 µg/cm2,[1],50 to 100%
same,mortality at 50 µg/cm2,[2],50 to 100%
"O=C(Nn1cnnc1)c1ccc(/C(F)=C/C(c2cc(Cl)c(Cl)c(Cl)c2)C(F)(F)F)cc1C(F)(F)F (centres unmarked) [F48, (Z)-4-(1,4,4,4-Tetrafluoro-3-(3,4,5-trichlorophenyl)but-1-en-1-yl)-N-(4H-1,2,4-triazol-4-yl)-2-(trifluoromethyl)benzamide]",mortality at 50 µg/cm2,[1],0%
same,mortality at 50 µg/cm2,[2],0%
"CN(NC(=O)c1ccc(/C(F)=C/C(c2cc(Cl)c(Cl)c(Cl)c2)C(F)(F)F)cc1C(F)(F)F)c1ncc([N+](=O)[O-])cn1 (centres unmarked) [F164, (Z)—N′-Methyl-N′-(5-nitropyrimidin-2-yl)-4-(1,4,4,4-tetrafluoro-3-(3,4,5-trichlorophenyl)but-1-en-1-yl)-2-(trifluoromethyl)benzohydrazide]",mortality at 50 µg/cm2,[1],50 to 100%
same,mortality at 50 µg/cm2,[2],50 to 100%
"CC(C)N(NC(=O)c1ccc(/C(F)=C/C(c2cc(Cl)c(Cl)c(Cl)c2)C(F)(F)F)cc1C(F)(F)F)c1ncccn1 (centres unmarked) [F169, (Z)—N′-Isopropyl-N′-(pyrimidin-2-yl)-4-(1,4,4,4-tetrafluoro-3-(3,4,5-trichlorophenyl)but-1-en-1-yl)-2-(trifluoromethyl)benzohydrazide]",mortality at 50 µg/cm2,[1],50 to 100%
same,mortality at 50 µg/cm2,[2],50 to 100%
"Cc1cc(C)c(NNC(=O)c2ccc(/C(F)=C/C(c3cc(Cl)c(Cl)c(Cl)c3)C(F)(F)F)cc2C(F)(F)F)c(C)c1 (centres unmarked) [F73, (Z)—N′-Mesityl-4-(1,4,4,4-tetrafluoro-3-(3,4,5-trichlorophenyl)but-1-en-1-yl)-2-(trifluoromethyl)benzohydrazide]",mortality at 50 µg/cm2,[1],50 to 100%
same,mortality at 50 µg/cm2,[2],0 to 50%
"CSc1nccc(NNC(=O)c2ccc(/C(F)=C/C(c3cc(Cl)c(Cl)c(Cl)c3)C(F)(F)F)cc2C(F)(F)F)n1 (centres unmarked) [F5, (Z)—N′-(2-(Methylthio)pyrimidin-4-yl)-4-(1,4,4,4-tetrafluoro-3-(3,4,5-trichlorophenyl)but-1-en-1-yl)-2-(trifluoromethyl)benzohydrazide]",mortality at 50 µg/cm2,[1],50 to 100%
same,mortality at 50 µg/cm2,[2],50 to 100%
"O=C(NNc1ncccn1)c1ccc(/C(F)=C/C(c2cc(F)c(Cl)c(F)c2)C(F)(F)F)cc1C(F)(F)F (centres unmarked) [F188, (Z)-4-(3-(4-Chloro-3,5-difluorophenyl)-1,4,4,4-tetrafluorobut-1-en-1-yl)-N′-(pyrimidin-2-yl)-2-(trifluoromethyl)benzohydrazide]",mortality at 50 µg/cm2,[1],50 to 100%
same,mortality at 50 µg/cm2,[2],50 to 100%
"O=C(NNc1cncnc1)c1ccc(/C(F)=C/C(c2cc(Cl)c(Cl)c(Cl)c2)C(F)(F)F)cc1C(F)(F)F (centres unmarked) [F31, (Z)—N′-(Pyrimidin-5-yl)-4-(1,4,4,4-tetrafluoro-3-(3,4,5-trichlorophenyl)but-1-en-1-yl)-2-(trifluoromethyl)benzohydrazide]",mortality at 50 µg/cm2,[1],50 to 100%
same,mortality at 50 µg/cm2,[2],50 to 100%
"CN(NC(=O)c1ccc(/C(F)=C/C(c2ccc(OC(F)(F)F)c(Cl)c2)C(F)(F)F)cc1C(F)(F)F)c1ccccn1 (centres unmarked) [F107, (Z)-4-(3-(3-Chloro-4-(trifluoromethoxy)phenyl)-1,4,4,4-tetrafluorobut-1-en-1-yl)-N′-methyl-N′-(pyridin-2-yl)-2-(trifluoromethyl)benzohydrazide]",mortality at 50 µg/cm2,[1],50 to 100%
same,mortality at 50 µg/cm2,[2],50 to 100%
"CN(NC(=O)c1ccc(/C(F)=C/C(c2cc(Br)c(F)c(Br)c2)C(F)(F)F)cc1C(F)(F)F)c1ccccc1 (centres unmarked) [F123, (Z)-4-(3-(3,5-Dibromo-4-fluorophenyl)-1,4,4,4-tetrafluorobut-1-en-1-yl)-N′-methyl-N′-phenyl-2-(trifluoromethyl)benzohydrazide]",mortality at 50 µg/cm2,[1],50 to 100%
same,mortality at 50 µg/cm2,[2],50 to 100%
"COc1cnc(N(C)NC(=O)c2ccc(/C(F)=C/C(c3cc(Cl)c(Cl)c(Cl)c3)C(F)(F)F)cc2C(F)(F)F)nc1 (centres unmarked) [F12, (Z)—N′-(5-Methoxypyrimidin-2-yl)-N′-methyl-4-(1,4,4,4-tetrafluoro-3-(3,4,5-trichlorophenyl)but-1-en-1-yl)-2-(trifluoromethyl)benzohydrazide]",mortality at 50 µg/cm2,[1],50 to 100%
same,mortality at 50 µg/cm2,[2],50 to 100%
"O=C(NNC1CCC1)c1ccc(/C(F)=C/C(c2cc(Cl)c(Cl)c(Cl)c2)C(F)(F)F)cc1C(F)(F)F (centres unmarked) [F138, (Z)—N′-Cyclobutyl-4-(1,4,4,4-tetrafluoro-3-(3,4,5-trichlorophenyl)but-1-en-1-yl)-2-(trifluoromethyl)benzohydrazide]",mortality at 50 µg/cm2,[1],50 to 100%
same,mortality at 50 µg/cm2,[2],50 to 100%
